Laboratory results published in patent US9000022B2 (Exelixis Patent Company LLC, priority 2005, dated 2015).

What follows are compounds tested on LXRα and/or LXRβ (assay: Co-transfection assay (LXRE luciferase reporter, CV-1 cells)). Conditions: tested as described in Example 33; IC50 or EC50 for LXRα and/or LXRβ, isoform not specified; read-out: activity (IC50 or EC50 for LXR).
Type: cell-based, human
Method in brief: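 Luciferase signal measures LXR-RXR transcriptional activation in transiently transfected CV-1 cells carrying human LXRα or LXRβ, RXRα and a single-copy LXRE reporter. Cells were exposed to compound for 20 h at 37 °C with at most 1% DMSO, using 10 μM final for screening. Potency was derived from 4-parameter fits of 8-point, half-log dose curves averaged over ≥3 runs, and efficacy was expressed as % of a reference agonist.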
In the case of `CCS(=O)(=O)c1cccc(-c2ccc(-n3cc(C(C)(C)O)nc3-c3c(F)cccc3Cl)cc2)c1` [Example 92, 2-(2-(2-chloro-6-fluorophenyl)-1-(3′-(ethylsulfonyl)biphenyl-4-yl)-1H-imidazol-4-yl)propan-2-ol], the IC50 or EC50 (potency, activation or inhibition) is reported as 1000 to 10000 nM. Compound `CC(C)(O)c1cn(-c2ccc(-c3cccc(S(C)(=O)=O)c3)cc2F)c(-c2c(F)cccc2F)n1` [Example 130, 2-(2-(2,6-difluorophenyl)-1-(3-fluoro-3′-(methylsulfonyl)biphenyl-4-yl)-1H-imidazol-4-yl)propan-2-ol] has an IC50 or EC50 (potency, activation or inhibition) of 1000 to 10000 nM. Compound `CC(C)(O)c1cn(-c2ccc(-c3ccc(CO)c(S(C)(=O)=O)c3)cc2)c(-c2c(Cl)cccc2Cl)n1` [Example 99, 2-(2-(2,6-dichlorophenyl)-1-(4′-(hydroxymethyl)-3′-(methyl-sulfonyl)biphenyl-4-yl)-1H-imidazol-4-yl)propan-2-ol] has an IC50 or EC50 (potency, activation or inhibition) of under 1000 nM. Work on `Cc1cc(-c2ccc(CO)c(S(C)(=O)=O)c2)ccc1-n1cc(C(C)(C)O)nc1-c1cccc(Cl)c1C` [Example 175, 2-(2-(3-chloro-2-methylphenyl)-1-(4′-(hydroxymethyl)-3-methyl-3′-(methylsulfonyl)biphenyl-4-yl)-1H-imidazol-4-yl)propan-2-ol] yielded an IC50 or EC50 (potency, activation or inhibition) of under 1000 nM. `CCS(=O)(=O)c1cccc(-c2ccc(-n3cc(C(C)(C)O)nc3C(C)(C)c3cccc(Cl)c3Cl)c(Cl)c2)c1` [Example 452, 2-(1-(3-chloro-3′-(ethyl-sulfonyl)biphenyl-4-yl)-2-(2-(2,3-dichlorophenyl)propan-2-yl)-1H-imidazol-4-yl)propan-2-ol] gave an IC50 or EC50 (potency, activation or inhibition) of under 1000 nM. Compound `COc1ccc(-c2ccc(-n3cc(C(C)(C)O)nc3Cc3cccc(Cl)c3Cl)c(Cl)c2)cc1S(C)(=O)=O` [Example 457, 2-(1-(3-chloro-4′-methoxy-3′-(methyl-sulfonyl)biphenyl-4-yl)-2-(2,3-dichlorobenzyl)-1H-imidazol-4-yl)propan-2-ol] has an IC50 or EC50 (potency, activation or inhibition) of under 1000 nM. Compound `CC(C)(O)c1cn(-c2ccc(-c3cccc(S(C)(=O)=O)c3)cc2F)c(-c2c(F)cccc2Cl)n1` [Example 134, 2-(2-(2-chloro-6-fluorophenyl)-1-(3-fluoro-3′-(methylsulfonyl)biphenyl-4-yl)-1H-imidazol-4-yl)propan-2-ol] has an IC50 or EC50 (potency, activation or inhibition) of under 1000 nM. Compound `CC(C)(O)c1cn(-c2ccc(-c3ccc(CO)c(S(C)(=O)=O)c3)cc2Cl)c(-c2c(F)cccc2F)n1` [Example 159, 2-(1-(3-chloro-4′-(hydroxymethyl)-3′-(methylsulfonyl)biphenyl-4-yl)-2-(2,6-difluorophenyl)-1H-imidazol-4-yl)propan-2-ol] has an IC50 or EC50 (potency, activation or inhibition) of under 1000 nM. In the case of `CC(C)(O)c1cn(-c2ccc(-c3ccc(CO)c(S(C)(=O)=O)c3)cc2F)c(-c2c(F)cccc2Cl)n1` [Example 127, 2-(2-(2-chloro-6-fluorophenyl)-1-(3-fluoro-4′-(hydroxymethyl)-3′-(methylsulfonyl)biphenyl-4-yl)-1H-imidazol-4-yl)propan-2-ol], the IC50 or EC50 (potency, activation or inhibition) is reported as 1000 to 10000 nM. `NS(=O)(=O)c1cccc(-c2ccc(-n3cc(C(F)(F)F)nc3-c3ccccc3Cl)cc2)c1` [Example 360, 4′-[2-(2-chlorophenyl)-4-(trifluoro-methyl)-1H-imidazol-1-yl]biphenyl-3-sulfonamide] was tested, and the IC50 or EC50 (potency, activation or inhibition) was under 1000 nM. For `CC(C)(O)c1cn(-c2ccc(-c3cccc(S(C)(=O)=O)c3)cc2F)c(-c2ccccc2C(F)(F)F)n1` [Example 109, 2-(1-(3-fluoro-3′-(methyl-sulfonyl)biphenyl-4-yl)-2-(2-(trifluoromethyl)phenyl)-1H-imidazol-4-yl)propan-2-ol], the IC50 or EC50 (potency, activation or inhibition) was under 1000 nM. For `CC(C)(O)c1cn(-c2ccc(-c3cccc(S(C)(=O)=O)c3)cc2)c(-c2cccc(Cl)c2)n1` [Example 393, 2-{2-(3-chlorophenyl)-1-[3′-(methyl-sulfonyl)biphenyl-4-yl]-1H-imidazol-4-yl}propan-2-ol], the IC50 or EC50 (potency, activation or inhibition) was under 1000 nM. For `CC(=O)c1cn(-c2ccc(-c3cccc(S(C)(=O)=O)c3)cc2)c(-c2c(Cl)cccc2Cl)n1` [Example 69, 1-(2-(2,6-dichlorophenyl)-1-(3′-(methylsulfonyl)biphenyl-4-yl)-1H-imidazol-4-yl)ethanone], the IC50 or EC50 (potency, activation or inhibition) was under 1000 nM. Work on `Cc1cc(-c2cccc(S(C)(=O)=O)c2)ccc1-n1cc(C(=S)NCC(F)(F)F)nc1-c1ccccc1C(C)C` [Example 75, 2-(2-isopropylphenyl)-1-(3-methyl-3′-(methylsulfonyl)biphenyl-4-yl)-N-(2,2,2-trifluoroethyl)-1H-imidazole-4-carbothioamide] yielded an IC50 or EC50 (potency, activation or inhibition) of under 1000 nM. For `Cc1cccc(Cl)c1-c1nc(C(C)(C)O)cn1-c1ccc(-c2cccc(S(C)(=O)=O)c2)cc1` [Example 394, 2-{2-(2-chloro-6-methylphenyl)-1-[3′-(methylsulfonyl)biphenyl-4-yl]-1H-imidazol-4-yl}propan-2-ol], the IC50 or EC50 (potency, activation or inhibition) was under 1000 nM. Work on `CC(C)(O)c1cn(-c2ccc(-c3ccc(CO)c(S(C)(=O)=O)c3)cc2F)c(-c2cccc(Cl)c2Cl)n1` [Example 117, 2-(2-(2,3-dichlorophenyl)-1-(3-fluoro-4′-(hydroxymethyl)-3′-(methyl-sulfonyl)biphenyl-4-yl)-1H-imidazol-4-yl)propan-2-ol] yielded an IC50 or EC50 (potency, activation or inhibition) of under 1000 nM. `CC(C)(O)c1cn(-c2ccc(-c3cccc(S(C)(=O)=O)c3)cc2)c(-c2cnccc2C(F)(F)F)n1` [Example 37, 2-(1-(3′-(methylsulfonyl)biphenyl-4-yl)-2-(4-(trifluoromethyl)pyridin-3-yl)-1H-imidazol-4-yl)propan-2-ol] was tested, and the IC50 or EC50 (potency, activation or inhibition) was over 10000 nM. Work on `CCS(=O)(=O)c1cccc(-c2ccc(-n3cc(C(C)(C)O)nc3-c3c(C)cccc3Cl)c(Cl)c2)c1` [Example 154, 2-(1-(3-chloro-3′-(ethyl-sulfonyl)biphenyl-4-yl)-2-(2-chloro-6-methylphenyl)-1H-imidazol-4-yl)propan-2-ol] yielded an IC50 or EC50 (potency, activation or inhibition) of under 1000 nM. `CC(C)(O)c1cn(-c2ccc(-c3cccc(S(C)(=O)=O)c3)cc2Cl)c(-c2nccc3ccccc23)n1` [Example 33, 2-(1-(3-chloro-3′-(methyl-sulfonyl)biphenyl-4-yl)-2-(isoquinolin-1-yl)-1H-imidazol-4-yl)propan-2-ol] showed an IC50 or EC50 (potency, activation or inhibition) of under 1000 nM. `CCS(=O)(=O)c1cccc(-c2ccc(-c3nc(C(C)(C)O)cn3-c3c(Cl)cccc3Cl)cc2)c1` [Example 64, 2-(1-(2,6-dichlorophenyl)-2-(3′-(ethylsulfonyl)biphenyl-4-yl)-1H-imidazol-4-yl)propan-2-ol] gave an IC50 or EC50 (potency, activation or inhibition) of under 1000 nM. `CC(C)(O)c1cn(-c2ccc(-c3ccc(CO)c(S(C)(=O)=O)c3)cc2F)c(-c2c(Cl)cccc2Cl)n1` [Example 122, 2-(2-(2,6-dichlorophenyl)-1-(3-fluoro-4′-(hydroxymethyl)-3′-(methylsulfonyl)biphenyl-4-yl)-1H-imidazol-4-yl)propan-2-ol] was tested, and the IC50 or EC50 (potency, activation or inhibition) was under 1000 nM. In the case of `Cc1cc(-c2ccc(CO)c(S(C)(=O)=O)c2)ccc1-n1cc(C(C)(C)O)nc1-c1cccc(F)c1Cl` [Example 173, 2-(2-(2-chloro-3-fluorophenyl)-1-(4′-(hydroxymethyl)-3-methyl-3′-(methylsulfonyl)biphenyl-4-yl)-1H-imidazol-4-yl)propan-2-ol], the IC50 or EC50 (potency, activation or inhibition) is reported as under 1000 nM. Work on `CCS(=O)(=O)c1cccc(-c2ccc(-n3cc(C(C)(C)O)nc3-c3cnccc3C(F)(F)F)cc2)c1` [Example 38, 2-(1-(3′-(ethylsulfonyl)biphenyl-4-yl)-2-(4-(trifluoromethyl)pyridin-3-yl)-1H-imidazol-4-yl)propan-2-ol] yielded an IC50 or EC50 (potency, activation or inhibition) of over 10000 nM. With `CC(C)(O)c1cn(-c2c(Cl)cccc2Cl)c(-c2ccc(-c3cccc(S(C)(=O)=O)c3)cc2Cl)n1` [Example 65, 2-(2-(3-chloro-3′-(methyl-sulfonyl)biphenyl-4-yl)-1-(2,6-dichlorophenyl)-1H-imidazol-4-yl)propan-2-ol] the IC50 or EC50 (potency, activation or inhibition) was under 1000 nM. `CS(=O)(=O)c1cccc(-c2ccc(-n3cc(C(=O)NCC(F)(F)F)nc3-c3c(Cl)cccc3Cl)c(Cl)c2)c1` [Example 459, 1-(3-chloro-3′-(methyl-sulfonyl)biphenyl-4-yl)-2-(2,6-dichlorophenyl)-N-(2,2,2-trifluoro-ethyl)-1H-imidazole-4-carboxamide] was tested, and the IC50 or EC50 (potency, activation or inhibition) was under 1000 nM. With `COc1ccc(-c2ccc(-n3cc(C(C)(C)O)nc3-c3cccc(Cl)c3Cl)cc2)cc1S(C)(=O)=O` [Example 455, 2-(2-(2,3-dichlorophenyl)-1-(4′-methoxy-3′-(methylsulfonyl)biphenyl-4-yl)-1H-imidazol-4-yl)propan-2-ol] the IC50 or EC50 (potency, activation or inhibition) was under 1000 nM. Compound `Cc1c(Cl)cccc1-c1nc(C(C)(C)O)cn1-c1ccc(-c2cccc(S(C)(=O)=O)c2)cc1F` [Example 118, 2-(2-(3-chloro-2-methylphenyl)-1-(3-fluoro-3′-(methylsulfonyl)biphenyl-4-yl)-1H-imidazol-4-yl)propan-2-ol] has an IC50 or EC50 (potency, activation or inhibition) of under 1000 nM. For `CCS(=O)(=O)c1cccc(-c2ccc(-n3cc(C(C)(C)O)nc3-c3c(C)cccc3Cl)c(C)c2)c1` [Example 192, 2-(2-(2-chloro-6-methylphenyl)-1-(3′-(ethylsulfonyl)-3-methylbiphenyl-4-yl)-1H-imidazol-4-yl)propan-2-ol], the IC50 or EC50 (potency, activation or inhibition) was under 1000 nM. `CC(C)(O)c1cn(-c2ccc(-c3cccc(S(C)(=O)=O)c3)cc2)c(-c2ccccc2F)n1` [Example 380, 2-{2-(2-fluorophenyl)-1-[3′-(methylsulfonyl)biphenyl-4-yl]-1H-imidazol-4-yl}propan-2-ol] showed an IC50 or EC50 (potency, activation or inhibition) of 1000 to 10000 nM. `CC(C)(O)c1cn(-c2ccc(-c3cccc(S(C)(=O)=O)c3)cc2Cl)c(-c2ccccc2Cl)n1` [Example 417, 2-{1-[3-chloro-3′-(methyl-sulfonyl)biphenyl-4-yl]-2-(2-chlorophenyl)-1H-imidazol-4-yl}propan-2-ol] was tested, and the IC50 or EC50 (potency, activation or inhibition) was under 1000 nM.
